Measurements reported in patent US5686423A, “Di-and tri-peptide mimetic compounds for Parkinson's disease” (Department of Health, the Executive Yuan, Republic of China, priority 1996, dated 1997).
Values belong to the compound of their own block, whether it stands above or below them. Residues, ends and D or L forms follow the SMILES beside them.

Columns and labels:
[1] = rat jejunal perfusion, perfusate 0.1 mM; for plasma conc. (mean ± s.e.m): blood drawn after 90 min perfusion
Experimental: The intestinal absorption of the prodrugs was then investigated by measuring the plasma concentration in rats upon in situ single-pass rat jejunal perfusion, and by determining the fraction of absorption in rabbits with data obtained from single-dose intra-artery injection and oral administration.
Perfusion solutions containing 5 mM KCl, 100 mM NaCl, 10 mM MES, 6 mM D-glucose, the testing compound, and 0.02% ascorbic acid as an anti-oxidant, were adjusted to pH 6 with NaOH. Osmolarity, measured by a Wescor 5500 vapor pressure osmometer (Wescor Company, Logan, Utah, U.S.A.), was adjusted to 300±10 mOsm/kg using sodium chloride. […] In order to prevent test compounds from oxidation, perfusion solutions were freshly prepared with nitrogen gas bubbled through for 10 min before each perfusion experiment.
Male Wistar Rats were fasted overnight (16-20 h) prior to anesthesia induced by i.m. injection of urethane (1.5 g/kg body weight). Following induction of anesthesia, rats were put on a heating pat to maintain body temperature. A midline longitudinal incision was made and a 5 to 10 cm jejunal segment was cannulated at the distal end to drain perfusates into collecting tubes. The entire surgical area was then covered with parafilm to minimize temperature reduction through evaporation. Tubing and syringes were covered with aluminum foil to retard the oxidation of testing compounds. Perfusion solution was pumped through the jejunal segment at a flow rate of 0.2 mL/min by a syringe pump (Stoelting, KD Scientific, U.S.A.). The jejunal segment was prewashed initially with drug-free buffer for 10 min and then pumped with test solution. Outlet tubing samples were collected every 10 min for 6 collection periods after water and solute transport reached steady-state. After 90 min perfusion, blood sample (1-2 mL) was drawn by cardiac puncture. The blood samples were centrifuged at 3000 rpm for 10 min, the plasma were separated and stored at -20° C. before analysis. The samples were filtered through 0.2 μm membrane filters before injecting into HPLC system.
Assays of L-dopa and test compounds were performed on HPLC consisting an autosampler (Model 717, Waters, Millipore, Milford, Mass., U.S.A.), a solvent delivery pump (Model 600E, Waters), a tunable absorbence detector (Model 484 or 486, Waters), and a PC 486 computer with a chromatography manager software (Millennium 2010, Millipore). L-Dopa from the perfusate was assayed on a Spheri 5RP-18 column (ABI, 5 μm, 250×4.6 mm) at flow rate of 1.0 mL/min with mobile phase comprising MeOH:0.05M NH4 H2 PO4 buffer (pH 4.6) containing 0.02M sodium 1-pentanesulfonate=10:90 (v/v). […] Standards were injected during each assay. Linearity of standard peak area ratios was validated. Numerical computation on data were performed on Statworks and are represented as mean±standard error of mean (s.e.m) for n experiments. Treatment differences were evaluated by t test.

[2] = 37° C., 2 minutes of incubation
Experimental: Mucosa suspension was prepared from the intestine of male Wistar rats according to the method of Hu et al. [Pharm. […] After abdominal incision the intestinal segment between the beginning of the jejunum and the end of the ileum was removed and everted to let the interior exposed. The mucosal layer was washed with normal saline and then scraped with glass microscope slides. The scraping was collected, diluted 1:9 (v/v) with ice cold isotonic sucrose solution, and ultrasonicated for 200 seconds. The suspension was centrifuged at 2500 rpm for 5 minutes. The supernatant suspension was stored in an ice bath before subjected to degradation study. All the stability studies were conducted right after the mucosa suspension was prepared. One hundred microliter of a methanolic solution of the test compound (1 mg/mL) was diluted with 2.4 mL of an isotonic mannitol buffer solution (pH=6.5) as the stock solution. One hundred microliter of the stock solution was mixed with equal volume of the mucosal suspension. The mixture was incubated in a 37° C. water bath and subjected to sampling at time intervals between zero to 60 minutes. Two hundred microliter of each sampled solution was denatured with MeOH (0.8 mL) and centrifuged at 14000 rpm for 5 minutes. Twenty to one hundred microliters each of the solution was subjected to HPLC assay on a Lichrospher 100 RP-18 column (E. Merck, 5 μm, 250×3.9 mm). […]

[3] = tested on: 6-hydroxydopamine-lesioned male Wistar rats; assay: Rotational behavior of nigrostriatal-lesioned rats elicited by (+)-methamphetamine; type: in vivo, rat; conditions: for rotation: control saline 552 ± 47
Description: Anti-Parkinsonism effect was determine by virtue of measuring the change in rotational behavior of 6-hydroxydopamine-lesioned male Wistar rats [Hudson J. L.; Levin. D. R.; Hoffer, B. J. A Sixteen-Channel Automated Rotometer System For Reliable Measurement of Turning Behavior in 6-Hydroxydopamine Lesioned and Transplanted Rats. Cell Transplantation 1993, 2, 507-514; Hudson J. L, Van Horne C. G.; Stromberg I.; Brock. S.; Clayton, J.; Masserano, J.; Hoffer, B. J.; Gerhardt, G. A. Correlation of Apomorphine and Amphetamine Induced Turning With Nigrostriatal Dopamine Content in Unilateral 6-Hydroxydopamine Lesioned Rats. Brain Res. 1993, 626, 167-174].
Twenty male Wistar rats weighing 150-175 grams were used. Within a 36 h window, all rats were lesioned by the same investigator using the following procedure. Surgical anesthesia was produced by i.p. injection of 30 mg/kg of sodium pentobarbtal. The animals were placed in a stereotaxic frame and the skin over the skull was incised and reflected. Bregma was used as the coordinate origin and a burr-hole was placed in the cranium over the injection site. After a small-needle puncture of the dura and lowering into the brain parenchyma, a solution of […] of 6-hydroxydopamine HCl was injected using a microliter syringe and a 26 gauge dome-tipped needle (AP-4.4 mm, ML 1.3 mm. DV -7.8 mm). The needle was removed after a 1 min delay and the wound was closed. Convalescence occurred in home cages with food and water ad libitum for the duration of the experiment.
On each testing day, the rats were placed into rotometer bowls and were allowed to acclimatize for 10 min. They then received a subcutaneous dose of (+)-methamphetamine (4 mg/kg in vehicle) and were allowed to move within the bowls for at least 60 min, or until they stopped turning. The rats were returned to the home cages after the experiment until next testing session.
The degree of dopamine depletion was evaluated by monthly testing of rotational behavior in a multichannel rotometer system after methamphetamine (4 mg/Kg, s.c.) injection.

vas deferences = conditions: continuous perfusion of 1 mg/mL for one min
Experimental: (§1) Each experiment was repeated at least three times. The mean responses before and after drug treatment were compared by means of Student's t test, with p<0.05, indicating significance. The contractile force of both pulmonary artery and vas deferences was elicited after continuous perfusion of dopamine (1 mg/mL) for one min.
(§2) Male guinea pigs (250-350 g) were stunned and bled. The vas deferences and pulmonary artery were isolated. A piece of the smooth muscle (about 1 mm wide and 7 mm long) was dissected. The isolated part was mounted vertically on an organ bath (1 mL capacity), kept at 35° C. and superfused with a physiological solution at a constant rate of about 2 mL /min (35° C.). The normal physiological solution had the following composition: NaCl (117 mM), KCl (5.9 mM), CaCl2 (2.4 mM), MgCl2 (1.2 mM), D-glucose (11.8 mM) and Tris 20 (pH 7.4 at 35° C.), aerated with 100% oxygen. Drugs tested were perfused for one min and then superfused with normal physiological solution or otherwise indicated. Tension was recorded isometrically by means of a Grass FT03 tranducer connected to a Grass model 7E polygraph or by a Gould UC2 transducer connected to a Gould 2200S recorder. Each experiment was repeated at least three times with different preparations.

pulmonary artery = conditions: continuous perfusion of 1 mg/mL for one min
Experimental: as §1, §2

[4] = Single dose oral and intra-artery bioavailability study in rabbits; conditions: oral vs intra-artery, 10 mg/Kg, six rabbits, mean ± s.e.m.
Experimental: Prodrug 1a was subjected to single dose oral and intra-artery (i.a.) administrations on 6 fasted New Zealand white rabbits for oral bioavailability study.
Single intra-artery dose of prodrug 1a or the parent drug was administered in six fasted New Zealand white rabbits, weighting 2.5-3.0 Kg, via ear artery. Blood samples were withdrawn with heparinized syringes from the contralateral artery at time intervals ranged from 1 min to 3.5 h. Freshly drawn heparinized blood was treated with extraction buffer (1 mol of Tris and 20 g of EDTA per liter, pH 8.6) and then extracted with alumina (100 g). The alumina was extracted with acidic buffer and the extract subjected to HPLC analysis.
After wash-out period, the same rabbits were used for single oral dose administration of prodrug la with a feeding tube. […] Prodrug 1a and dihydroxybenzylamine,used as an internal standard, were detected with electrochemical detector at 0.750 V of oxidation potential. The maximal plasma concentration (Cmax) and the time to the maximal plasma concentration (tmax) were determined. The area under the plasma concentration-time profile (AUC) and the terminal half-life (t1/2) were calculated. Fraction of absorption was calculated from the pharmacokinetic parameters (tmax, Cmax, AUC, t1/2) obtained from oral and intra-artery administrations.

[5] = cited from earlier work
[6] = i.p. 1-2 hours prior to (+)-methamphetamine

Compound: D-p-hydroxyphenylglycine-L-serine-L-dopa [2b]
plasma concentration, fold higher than that of L-dopa [1]: 60-100 fold
plasma conc. (mean ± s.e.m) [1]: 62.1 ± 3.53

Compound: NCC(=O)N[C@@H](Cc1ccccc1)C(=O)O [L-glycine-L-phenylalanine] (H-Gly-Phe-OH)
fraction degraded in rat intestinal mucosa suspension [2]: 81%

Compound: D-p-hydroxyphenylglycine-L-dopa [1b]
plasma conc. (mean ± s.e.m) [1]: 0.60 ± 0.01

Compound: D-p-hydroxyphenylglycine-L-proline-L-dopa [compound 2d]
rotation ([3]; 9.6 mg/kg i.p., (+)-methamphetamine injected 1 h after treatment): 223 ± 95 turns/h
rotation ([3]; 9.6 mg/kg i.p., (+)-methamphetamine injected 2 h after treatment): 247 ± 67 turns/h
anti-rotation activity compared with L-dopa (in words) [3, 6]: slightly higher than that of L-dopa
effect on (+)-methamphetamine-induced rotation (in words) [3, 6]: significantly prohibited

Compound: L-dopa-D-phenylglycine [1c]
plasma concentration, fold higher than that of L-dopa [1]: 60-100 fold
plasma conc. (mean ± s.e.m) [1]: 104.00 ± 12.98

contraction of vas deferences (resting tension) (vas deferences): elicited
contraction of pulmonary artery (resting tension) (pulmonary artery): elicited
Compound: NCCc1ccc(O)c(O)c1 [dopamine]

Compound: D-phenylglycine-L-dopa [compound 1a]
fraction of absorption [4]: 76 ± 24%
plasma concentration, fold higher than that of L-dopa [1]: 60-100 fold
plasma conc. (mean ± s.e.m) [1]: 64.65 ± 5.45

Compound: D-Phenylglycine-L-serine-L-dopa [2a]
plasma conc. (mean ± s.e.m) [1]: 8.49 ± 1.36

Compound: NC(Cc1ccc(O)c(O)c1)C(=O)O [L-dopa, 2-amino-3-(3,4-dihydroxyphenyl)propanoic acid]
AUCCSF /AUCplasma ([5]; Parkinson disease, literature (Olanow et al. 1991)): 12/100
oral bioavailability ([5]; at up to 1000 mg/day): 33%
rotation ([3]; 4.2 mg/kg i.p., (+)-methamphetamine injected 1 h after treatment): 287 ± 86 turns/h
